Test results published in patent US12630500B2, “Hexasubstituted radialene compounds and applications thereof” (THE UNIVERSITY OF NORTH CAROLINA AT CHARLOTTE, priority 2019, dated 2026).

How the values were obtained:
[1] = reported catholytes for neutral aqueous RFBs; cited from earlier work
[2] = Cyclic voltammetry in water (GC working electrode, Ag/AgCl reference); format: physicochemical; settings: Randles-Sevcik equation, scan rates 0-700 mV/s
[3] = format: physicochemical
Description: (§1) Hexacyano[3] radialene was initially used as a model system to probe the efficacy of hexasubstituted radialenes as redox couples in pH 7 aqueous solutions. A prerequisite for a practical aqueous catholyte is a high oxidation potential that occurs within the electrochemical window of water. The electrochemistry of [C6(CN)6]^2− as a tetrabutylammonium (TBA) salt in organic solvents only. […] Using cyclic voltammetry (CV), it was first established that the one electron oxidation of the dianion to the radical anion occurs at a potential favorable for use as a catholyte for RFBs, 480 mV.
(§2) This value was almost identical to the diffusion coefficients of hydrophilic ferrocene derivatives in neutral pH solutions of NaCl. […] Such chemical stability is essential for durable RFB electrolytes.
Diester compound 3 was selected for further analysis due to its favorable solubility in both redox states and its adequate oxidation potential in water. Electrochemical studies of compound 3 were performed to gauge its stability and galvanostatic cycling performance in aqueous solution. […] This assuages concerns of the possibility of ester hydrolysis. Next, a symmetrical H-cell with a cation-exchange membrane separator was used for aqueous galvanostatic charge-discharge experiments (FIG. 4B). The compound 3 undergoes steady cycling over a period of 12 days (50 cycles). […] The higher relative capacity retention was ascribed to the asymmetry and non-planarity of the diester congener, which helps limit dimerization interactions.

[4] = Cyclic voltammetry in water (GC working electrode, Ag/AgCl reference); format: physicochemical; settings: for E^ox1/2 / ipc/ipa: in water
Description: FIG. 2A provides cyclic voltammograms of a hexasubstituted radialene dianion ([…]) using a glassy carbon (GC) working electrode, platinum auxiliary electrode, and Ag/AgCl reference electrode measured at various scan rates (10-700 mV/s) in water.
as §1, §2

[5] = Conductivity of aqueous solutions; format: physicochemical; settings: for Conductivity: first value of the pair; for Conductivity (value in parentheses): not defined in the patent
[6] = Aqueous solubility by UV/Vis spectroscopy; format: physicochemical; settings: for Solubility / Radical Anion Solubility: aqueous; for Solubility: dianionic state (disodium salt); for Radical Anion Solubility: radical anionic state
Procedure: One nitrile group was systematically substituted at a time in an effort to preserve the favorable oxidation potential of the redox couple. To this end, a series of asymmetric, ester-substituted, [3] radialene species (FIG. 3, Compounds 1-4) were prepared via the zwitterionic synthetic method. The aqueous solubilities of these compounds in both the dianionic and radical anionic states were determined using UV/Vis spectroscopy (Table 1).

[7] = Stability in air and thermal stability; format: physicochemical
Description: Hexacyano[3] radialene (Na2C6(CN)6), compound 1 in FIG. 3, was synthesized at low temperatures, on a large scale, and in high yield (for example 45 g, 91%). This convenient synthesis uses inexpensive precursors (tetrachlorcyclopropene (TCCP) and malononitrile), reagents (sodium hydride), and solvent (glyme). […] Furthermore, this compound is stable in air, and can be sequentially oxidized in two single-electron transfers. The product of the first oxidation, radical anion the compound ·- is particularly persistent. […] Remarkably, the radical anion is thermally stable to above 180° C. The inherent stability of the compound and persistence of the radical anion ·- signifies that the redox couple is favorable for use in a RFB, a device in which long lifespan is required. Finally, aqueous solutions of the dianion are colorless, while the radical anion produces a deep blue color when dissolved. This is advantageous for visually following the charge-discharge characteristics of proposed RFBs.

SMILES	diffusion coefficient for the electron transfer process [2]	stability in aqueous solutions ([3]; pH 7)	potential of one electron oxidation of dianion to radical anion ([4]; cyclic voltammetry, aqueous pH 7) [mV]	E^ox1/2 [4] [V]	ipc/ipa [4]	Conductivity [5] [mS/cm]	Conductivity (value in parentheses) [5]	Solubility [6] [M]	Radical Anion Solubility [6] [mM]	solubility in water ([6]; dianion) [mM]	stability in air ([7]; dianion compound)	thermal stability of radical anion ([7]; radical anion)	storage of radical anion in air ([7]; radical anion, isolated via chemical oxidation)	stability of dianion in water [3]	conductivity of aqueous solutions without supporting electrolyte ([5]; 0.1 M, without NaCl)	solubility in water ([6]; disodium salt) [mM]	oxidation potential [1] [mV]	change in peak current height on standing ([3]; solutions of dianion and radical anion left five days)
CC1(C)CC(O)CC(C)(C)N1[O] [4-hydroxy-TEMPO]																	610	
N#CC(C#N)=C1C([C-](C#N)C#N)=C1[C-](C#N)C#N.[Na+].[Na+] [Compound 1, Hexacyano[3] radialene (Na2C6(CN)6)]	3.71×10^−6 cm^2/s	stable	480	0.48	1.03	13.2	(0.147) mS/cm	<0.1	<25	25	stable in air	above 180 °C	stored in air indefinitely					no significant changes in peak current height
COC(=O)C(C#N)=C1C([C-](C#N)C#N)=C1[C-](C#N)C#N.[Na+].[Na+] [Compound 2]				0.4	0.97	15.7	(2.36) mS/cm	0.19	80									

Continued, in another order:

diffusion coefficient for the electron transfer process [2]	stability in aqueous solutions ([3]; pH 7)	potential of one electron oxidation of dianion to radical anion ([4]; cyclic voltammetry, aqueous pH 7) [mV]	E^ox1/2 [4] [V]	ipc/ipa [4]	Conductivity [5] [mS/cm]	Conductivity (value in parentheses) [5]	Solubility [6] [M]	Radical Anion Solubility [6] [mM]	solubility in water ([6]; dianion) [mM]	stability in air ([7]; dianion compound)	thermal stability of radical anion ([7]; radical anion)	storage of radical anion in air ([7]; radical anion, isolated via chemical oxidation)	stability of dianion in water [3]	conductivity of aqueous solutions without supporting electrolyte ([5]; 0.1 M, without NaCl)	solubility in water ([6]; disodium salt) [mM]	SMILES	oxidation potential [1] [mV]	change in peak current height on standing ([3]; solutions of dianion and radical anion left five days)
			0.27	1.15	39	(0.23) mS/cm	0.82	<25								COC(=O)C(C#N)=C1C([C-](C#N)C(=O)OC)=C1[C-](C#N)C(=O)OC.[Na+].[Na+] (stereo not drawn) [Compound 4]		
			0.35	1.06	36.7	(23.2) mS/cm	0.45	170					stable in water	sufficiently conductive	850	COC(=O)[C-](C#N)C1=C([C-](C#N)C(=O)OC)C1=C(C#N)C#N.[Na+].[Na+] (stereo not drawn) [Compound 3, diester-tetracyano [3] radialene dianion]		
